Experimental findings from publication PMC11464467 (Journal of Advanced Research, 2023) are described below.

Test [1] relates to striatal DA. The test can be described thus: HPLC-ECD striatal DA in MPTP mice. As to conditions: MPTP-treated mice, selegiline 10 mg/kg. In kind it is in vivo.
Test [2] relates to MPTP-induced mice PD model. Put plainly: Footprint test in MPTP-induced mice PD model. The class given is in vivo. As to conditions: selegiline 10 mg/kg orally twice daily 14 days; not statistically significant.

Turning to `C#CCN(C)[C@H](C)Cc1ccccc1` [selegiline], in test [1], the “Increase in dopamine levels” value stood at 15.35%. In addition, the “Locomotion impairments in footprint test (time to cross corridor, stride length)” value in test [2] is “attenuated these locomotion impairments”.
